Experimental data as given in the NIST ThermoML archive (doi:10.1007/s10765-011-0995-x).

What was measured:
[1] = xn = mol fraction of the nth substance listed; settings: 101 kPa, Liquid; for speed of sound: Pulse-echo method
[2] = refractive index (Na D-line) (dimensionless); xn = mol fraction of the nth substance listed; settings: 101 kPa, Liquid, Standard Abbe refractometry

Cc1ccccc1Cl [2-chlorotoluene] + CCCCCCCCCCO
Settings	mass density, [1] [kg/m3]	refractive index, [2]	speed of sound, [1] [m/s]	viscosity, [1] [mPa·s]
298.15 K, x1 = 0.0734	838.4	1.4377	1373.9	10
298.15 K, x1 = 0.1537	852.15	1.4413	1366.5	8.277
298.15 K, x1 = 0.2064	861.61	1.444	1361.3	7.283
298.15 K, x1 = 0.2747	874.4	1.4479	1354.2	6.13
298.15 K, x1 = 0.345	888.32	1.4524	1346.6	5.101
298.15 K, x1 = 0.4107	902.06	1.4569	1339.4	4.289
298.15 K, x1 = 0.489	919.52	1.4628	1330.9	3.477
298.15 K, x1 = 0.5555	935.39	1.4685	1323.8	2.906
298.15 K, x1 = 0.6158	950.72	1.4741	1317.6	2.468
298.15 K, x1 = 0.6813	968.52	1.4806	1311.5	2.075
298.15 K, x1 = 0.7475	987.82	1.4878	1306	1.742
298.15 K, x1 = 0.8205	1010.87	1.4966	1301.2	1.446
298.15 K, x1 = 0.884	1032.61	1.505	1298.7	1.235
298.15 K, x1 = 0.9469	1056.04	1.514	1298.5	1.062
298.15 K, x1 = 1	1077.41	1.5219	1301.2	0.943
303.15 K, x1 = 0.0734	834.73	1.4359	1358.4	8.289
303.15 K, x1 = 0.1537	848.3	1.4394	1350.5	6.862
303.15 K, x1 = 0.2064	857.65	1.4423	1344.9	6.042
303.15 K, x1 = 0.2747	870.31	1.4462	1337.3	5.103
303.15 K, x1 = 0.345	884.08	1.4505	1329.3	4.266
303.15 K, x1 = 0.4107	897.72	1.4549	1321.7	3.603
303.15 K, x1 = 0.489	915.05	1.4608	1312.7	2.952
303.15 K, x1 = 0.5555	930.83	1.4664	1305.2	2.486
303.15 K, x1 = 0.6158	946.09	1.4719	1298.8	2.133
303.15 K, x1 = 0.6813	963.84	1.4784	1292.5	1.806
303.15 K, x1 = 0.7475	983.1	1.4855	1286.9	1.538
303.15 K, x1 = 0.8205	1006.13	1.4941	1282.3	1.294
303.15 K, x1 = 0.884	1027.9	1.5023	1280	1.124
303.15 K, x1 = 0.9469	1051.38	1.5111	1280.6	0.984
303.15 K, x1 = 1	1072.83	1.5189	1284.1	0.885
308.15 K, x1 = 0.0734	831.1	1.4339	1339.3	6.889
308.15 K, x1 = 0.1537	844.55	1.4378	1330.9	5.734
308.15 K, x1 = 0.2064	853.84	1.4406	1324.9	5.078
308.15 K, x1 = 0.2747	866.4	1.4445	1316.8	4.313
308.15 K, x1 = 0.345	880.08	1.4489	1308.2	3.637
308.15 K, x1 = 0.4107	893.62	1.4534	1300	3.08
308.15 K, x1 = 0.489	910.82	1.4592	1290.6	2.528
308.15 K, x1 = 0.5555	926.51	1.4648	1283.1	2.134
308.15 K, x1 = 0.6158	941.68	1.4702	1276.7	1.837
308.15 K, x1 = 0.6813	959.32	1.4767	1270.8	1.566
308.15 K, x1 = 0.7475	978.5	1.4839	1266.1	1.338
308.15 K, x1 = 0.8205	1001.49	1.4924	1262.5	1.135
308.15 K, x1 = 0.884	1023.23	1.5005	1261.6	0.995
308.15 K, x1 = 0.9469	1046.71	1.5092	1262.2	0.879
308.15 K, x1 = 1	1068.24	1.5169	1266.1	0.805

Cc1cccc(Cl)c1 [3-chlorotoluene] + CCCCCCCCCCO
Settings	mass density, [1] [kg/m3]	refractive index, [2]	speed of sound, [1] [m/s]	viscosity, [1] [mPa·s]
298.15 K, x1 = 0.0745	837.98	1.4371	1371.6	10.08
298.15 K, x1 = 0.1337	847.61	1.4394	1364.4	8.723
298.15 K, x1 = 0.2017	859.18	1.4424	1356	7.28
298.15 K, x1 = 0.2741	872.19	1.446	1347	5.927
298.15 K, x1 = 0.3471	886.08	1.4501	1338	4.762
298.15 K, x1 = 0.4139	899.55	1.4545	1329.9	3.862
298.15 K, x1 = 0.4616	909.68	1.4579	1324.3	3.322
298.15 K, x1 = 0.5532	930.44	1.4653	1314.9	2.496
298.15 K, x1 = 0.6282	948.88	1.4723	1308.1	1.985
298.15 K, x1 = 0.6772	961.72	1.4772	1304.1	1.724
298.15 K, x1 = 0.7447	980.55	1.4847	1300	1.429
298.15 K, x1 = 0.8245	1004.78	1.4947	1296.6	1.17
298.15 K, x1 = 0.8876	1025.62	1.5034	1296.2	1.016
298.15 K, x1 = 0.9433	1045.43	1.5117	1297.1	0.906
298.15 K, x1 = 1	1067.29	1.5207	1298.3	0.798
303.15 K, x1 = 0.0745	834.43	1.4353	1355.2	8.289
303.15 K, x1 = 0.1337	844.01	1.4378	1347	7.171
303.15 K, x1 = 0.2017	855.5	1.4408	1337.4	6.013
303.15 K, x1 = 0.2741	868.42	1.4445	1327.4	4.905
303.15 K, x1 = 0.3471	882.21	1.4488	1318	3.977
303.15 K, x1 = 0.4139	895.58	1.4533	1309.9	3.261
303.15 K, x1 = 0.4616	905.65	1.4567	1304.4	2.821
303.15 K, x1 = 0.5532	926.26	1.4641	1295.5	2.161
303.15 K, x1 = 0.6282	944.59	1.4711	1289.3	1.744
303.15 K, x1 = 0.6772	957.36	1.4761	1285.8	1.523
303.15 K, x1 = 0.7447	976.11	1.4835	1281.9	1.282
303.15 K, x1 = 0.8245	1000.26	1.4932	1278.3	1.063
303.15 K, x1 = 0.8876	1021.06	1.5017	1276.7	0.934
303.15 K, x1 = 0.9433	1040.84	1.5099	1276.5	0.844
303.15 K, x1 = 1	1062.81	1.5189	1280.1	0.746
308.15 K, x1 = 0.0745	830.88	1.4334	1335	6.908
308.15 K, x1 = 0.1337	840.4	1.436	1325.8	6.001
308.15 K, x1 = 0.2017	851.82	1.4391	1315.4	5.022
308.15 K, x1 = 0.2741	864.64	1.443	1305	4.123
308.15 K, x1 = 0.3471	878.33	1.4473	1295.4	3.348
308.15 K, x1 = 0.4139	891.6	1.4518	1287.6	2.771
308.15 K, x1 = 0.4616	901.59	1.4553	1282.4	2.423
308.15 K, x1 = 0.5532	922.06	1.4628	1273.9	1.862
308.15 K, x1 = 0.6282	940.26	1.4697	1268.3	1.521
308.15 K, x1 = 0.6772	952.94	1.4747	1265.4	1.343
308.15 K, x1 = 0.7447	971.61	1.482	1261.9	1.142
308.15 K, x1 = 0.8245	995.7	1.4917	1258.4	0.96
308.15 K, x1 = 0.8876	1016.44	1.5	1257.5	0.851
308.15 K, x1 = 0.9433	1036.25	1.5082	1257.8	0.777
308.15 K, x1 = 1	1058.33	1.5169	1262.1	0.705
